pIC50: −log10 of the molar value. In brackets after ≈: the same amount, converted by molar mass. Where two headings read alike, the source gives them in different places.
What was measured:
[1] = system: FemX; set-up: method as in PMID 23203090; details: 72 h; cited from earlier work
[2] = system: 518A2; set-up: method as in PMID 27936296; details: 518A2, 72 h, cited from earlier work
[3] = system: C8D1A; assay: MTT viability assay, normal astrocytes C8D1A; format: cell-based, murine; details: Mus musculus, C8-D1A; murine astrocytes, 24 h, reference drug
Excerpt: (§1) Cell lines of different origins were used in the study and grouped as follows: prostate panel (human prostate carcinomas: DU145, derived from metastatic site: brain; grade IV PC3, derived from metastatic site: bone; LNCaP, derived from the metastatic site: lymph node; prostate epithelial, PNT2), colon panel (colorectal adenocarcinomas: HT29, originating from a primary tumor; Duke’s type C DLD-1, with the potential to lymph node metastasis; highly metastatic HCT116; colon epithelial cells CCD 841 CoN), thyroid panel (follicular thyroid carcinoma FTC133, anaplastic thyroid carcinoma 8505C, papillary thyroid carcinoma TPC-1, normal thyroid follicular epithelial Nthy-ori 3–1), breast panel (ER-positive breast adenocarcinoma MCF7, ER-negative breast adenocarcinoma MDA-MB-231, breast epithelial MCF10A), brain panel (neuroblastoma SH-SY5Y, glioblastoma U-87 MG, murine astrocytes C8D1A). All cell lines were purchased from Merck (Darmstadt, Germany).
(§2) Cells were grown under standard conditions (37 °C, 5% CO2) and culture media (DMEM/F12 for PNT2, PC3, FTC133, 8505 C, MDA-MB-231, TPC-1; DMEM Low Glucose for DU145; DMEM High Glucose for HCT116, DLD-1, SH-SY5Y, U87MG, C8D1A; MEM with NEAA for MCF7; MEM for CCD 841 CoN; McCoy’s for HT29; RPMI1640 with sodium pyruvate for LNCaP; DMEM/F12 with 20 ng/mL epidermal growth factor (EGF), 10 μg/mL insulin, 0.5 μg/mL hydrocortisone, 100 ng/mL cholera toxin) for MCF10A), supplemented with 10% fetal bovine serum (FBS) or 5% donor horse serum for MCF10A, and 1% antibiotics solution (10,000 U penicillin and 10 mg streptomycin/mL). The tested substances were prepared as 10 mg/mL stock solutions in DMSO and further diluted in the culture media to the working concentrations. Cells were treated with UA enantiomers at the concentration range of 0–50 µg/mL. The influence of DMSO on cell viability was also examined, with the final concentration […], and no toxic effect was noted.
(§3) The cells were seeded onto 96-well plates at a density of 1.5 × 10^4 cells/well. After 24 h UA enantiomers were added. Cell viability was determined after 24, 48, and 72 h by the MTT assay, as described previously. Doxorubicin was used as a reference cytostatic drug. All analyses were performed in triplicate; cell viability was expressed as % of control, untreated cells (mean ± SD), and IC50 values (concentration at which cell viability is inhibited by 50%), if possible.

[4] = system: HepG2 cells; set-up: method as in PMID 40368021; details: HepG2, 24 h, reference drug; cited from earlier work
[5] = system: CCD 841 CoN; assay: MTT viability assay, normal colon epithelial cells; format: cell-based, human; details: Homo sapiens, CCD-841CoN; normal colon epithelial cells, 24 h, reference drug; read-out: IC50
Excerpt: as §1, §2, §3

[6] = system: human non-cancerous skin cells; set-up: method as in PMID 34500657; details: 24 h, reference drug; cited from earlier work
[7] = system: PNT2; assay: MTT viability assay, normal prostate epithelial cells; format: cell-based, human; details: Homo sapiens, PNT2; normal prostate epithelial cells, reference drug, time not given; read-out: IC50
Excerpt: as §1, §2, §3

[8] = system: WM793 cells; set-up: method as in PMID 34577645; details: WM793, reference drug, time not given; cited from earlier work

| SMILES | IC50 [1] | IC50 ([2]; recalculated from µM by the authors) | pIC50 ([2]; read-out: IC50) | IC50 [3] | IC50 (hepatotoxicity) [4] | IC50 [5] | IC50 [6] | IC50 [7] | IC50 [8] |
| --- | --- | --- | --- | --- | --- | --- | --- | --- | --- |
| CC(=O)c1c(O)c(C)c(O)c2c1OC1=CC(=O)C(C(C)=O)C(=O)C12C (stereo not drawn) [UA, Usnic acid] | 12.72 µg/mL (≈ 36.9 µM) | ≈ 2 µg/mL | 5.27 | – | – | – | – | – | – |
| COc1cccc2c1C(=O)c1c(O)c3c(c(O)c1C2=O)C[C@@](O)(C(=O)CO)C[C@@H]3O[C@H]1C[C@H](N)[C@H](O)[C@H](C)O1 [doxorubicin, reference compound] | – | – | – | 2.25 µg/mL (≈ 4.14 µM) | 1.03 µg/mL (≈ 1.9 µM) | 2.25 µg/mL (≈ 4.14 µM) | 4.7 µg/mL (≈ 8.65 µM) | 1.4 µg/mL (≈ 2.58 µM) | > 100 µg/mL |
